Columns and labels:
fruit flies = experiment: Mutagenous activity on fruit flies; format: in vivo; details: dihydrate
in vivo = format: in vivo
[1] = Antianginal effect in patients, intravenous; format: in vivo; details: 0.2 to 0.4 g intravenous
Procedure: The antianginal and antiarrhythmic effects of the preparation according to the present invention were evaluated with the use of the injection pharmaceutical form of the preparation administered intravenously in an amount of 0.2 to 0.4 g based on the active ingredient.

[2] = Aconitine arrhythmia in rats after repeated peroral administration; format: in vivo, white rats
Procedure: The antiarrhythmic activity was studied in experiments on white rats of both sexes with a mass of 190 to 230 g narcotized by urethane. An ECG was recorded for these animals. Into the femoral vein of the rats, aconitine was introduced at a constant rate and its arrhythmogenic and lethal doses were determined along with their variation under the protective effect of the preparation according to the present invention.

[3] = Coronary circulation and hemodynamics in narcotized cats; format: in vivo
Procedure: In acute experiments on narcotized cats with a mass of from 2.9 to 4.1 kg under artificial respiration, arterial pressure was recorded in the common carotide artery, central venous pressure in the right auricle, volume rate of blood flow in the ascending aortic arch and volume rate of the coronary blood flow. At the same time, there was recorded the content of oxyhemoglobin in venous coronary blood.

C[N+](C)(C)NCCC(=O)[O-] [3-(2,2,2-trimethylhydrazinium)propionate]
Mutagenous activity (fruit flies): does not have mutagenous activity
LD50 (in vivo; mouse, in vivo, ip, read-out: Acute toxicity, LD50): 7850 mg/kg
Toxicity lower than that of carbocromene (in vivo; vs carbocromene): 12 times
Stability of analgesic effect [1]: not always stable
Effect on retrosternal pains ([1]; 8 cases in 5 patients): rapidly cut short retrosternal pains
Aconitine dose variation, arrhythmogenic ([2]; 25 mg/kg perorally, 1 week): 38.7%
Aconitine dose variation, lethal ([2]; 25 mg/kg perorally, 1 week): 27.6%
Aconitine dose variation, arrhythmogenic ([2]; 25 mg/kg perorally, 2 weeks): 42.26%
Aconitine dose variation, lethal ([2]; 25 mg/kg perorally, 2 weeks): 24.7%
Aconitine dose variation, arrhythmogenic ([2]; 100 mg/kg perorally, 1 week): 55.6%
Aconitine dose variation, lethal ([2]; 100 mg/kg perorally, 1 week): 16.2%
Aconitine dose variation, arrhythmogenic ([2]; 100 mg/kg perorally, 2 weeks): 34.6%
Aconitine dose variation, lethal ([2]; 100 mg/kg perorally, 2 weeks): 9.7%
Protective effect against aconitine ([2]; peroral): pronounced protective effect
Change of arterial pressure ([3]; 2 mg/kg): 0 + -5%
Change of central venous pressure ([3]; 2 mg/kg): 0%
Change of heart output ([3]; 2 mg/kg): 0 + +5%
Increase duration ([3]; 2 mg/kg): 20 min
Volume rate, percent of increase ([3]; 2 mg/kg): 15%
Change of central venous pressure ([3]; 10 mg/kg): -5%
Change of heart output ([3]; 10 mg/kg): +5 - 10%
Increase duration ([3]; 10 mg/kg): 45 min
Volume rate, percent of increase ([3]; 10 mg/kg): 40%
Change of arterial pressure ([3]; 25 mg/kg): -8 - +5%
Change of central venous pressure ([3]; 25 mg/kg): -10%
Change of heart output ([3]; 25 mg/kg): +10 - 20%
Increase duration ([3]; 25 mg/kg): 70 min
Volume rate, percent of increase ([3]; 25 mg/kg): 55%
Therapeutical index higher than carbocromene ([3]; 314 vs. 130): approximately 3 times
Saturation of the venous blood of coronary sinus with oxygen ([3]; in vivo): lastingly increase saturation of the venous blood of coronary sinus with oxygen
Therapeutical index ([3]; in vivo): 314
